pIC50: −log10 of the molar value.

This experiment deals with FTO (Homo sapiens, UniProt Q9C0B1). Briefly: demethylation reaction catalyzed by FTO (enzymatic inhibition, HPLC-MS/MS of N6-mA and A). The experiment is classed as biochemical. The conditions noted are these: exemplary IC50 data of representative compounds; read-out: Enzymatic inhibition (IC50).
FTO, sequence (Q9C0B1 whole entry): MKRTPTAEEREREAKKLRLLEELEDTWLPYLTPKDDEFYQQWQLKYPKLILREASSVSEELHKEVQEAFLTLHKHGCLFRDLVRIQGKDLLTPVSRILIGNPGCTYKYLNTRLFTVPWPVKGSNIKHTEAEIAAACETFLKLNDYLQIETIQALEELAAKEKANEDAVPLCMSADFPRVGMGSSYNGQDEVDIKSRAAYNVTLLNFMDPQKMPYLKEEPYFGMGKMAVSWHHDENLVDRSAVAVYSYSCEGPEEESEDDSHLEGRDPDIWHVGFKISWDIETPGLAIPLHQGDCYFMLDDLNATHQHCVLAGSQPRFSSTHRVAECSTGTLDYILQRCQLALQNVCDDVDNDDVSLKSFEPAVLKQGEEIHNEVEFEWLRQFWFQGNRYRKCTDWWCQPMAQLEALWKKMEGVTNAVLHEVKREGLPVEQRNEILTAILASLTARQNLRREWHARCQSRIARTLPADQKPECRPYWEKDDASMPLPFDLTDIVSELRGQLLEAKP
With `N#C/C(=C\c1cc(O)c(O)c([N+](=O)[O-])c1)C(=O)N1CCCC1` [Compound 317], the pIC50 was less than 6.00.

On to `CC(NC(=O)/C(C#N)=C/c1cc(O)c(O)c([N+](=O)[O-])c1)C(=O)O` (stereo not shown) [Compound 712], for which the pIC50 was roughly 6.00.

In the case of `N#C/C(=C\c1cc(O)c(O)c([N+](=O)[O-])c1)c1cncnc1` [Compound 522], the pIC50 is roughly 6.00.

In the case of `N#C/C(C(=O)Nc1ncns1)=C(/O)c1cc(O)c(O)c([N+](=O)[O-])c1` [Compound 668, 2-cyano-3-(3,4-dihydroxy-5-nitrophenyl)-3-hydroxy-N-(1,2,4-thiadiazol-5-yl)acrylamide], the pIC50 is greater than 6.00.

As for `N#C/C(=C\c1cc(O)c(O)c([N+](=O)[O-])c1)c1cccnc1` [Compound 319], the pIC50 was greater than 6.00.

For the compound `N#C/C(=C\c1cc(O)c(O)c([N+](=O)[O-])c1)C(=O)NCC(=O)O` [Compound 709, (E)-2-(2-cyano-3-(3,4-dihydroxy-5-nitrophenyl)acrylamido)acetic Acid], the pIC50 is greater than 6.00.

For `N#C/C(C(=O)c1cscn1)=C(/N)c1cc(O)c(O)c([N+](=O)[O-])c1` [Compound 711N, ammonium (Z)-5-(1-amino-2-cyano-3-oxo-3-(thiazol-4-yl)prop-1-enyl)-2-hydroxy-3-nitrophenolate], the pIC50 is less than 6.00.

For `N#C/C(=C\c1cc(O)c(O)c([N+](=O)[O-])c1)C(=O)c1nc2ccccc2[nH]1` [Compound 394, 2-(1H-benzo[d]imidazole-2-carbonyl)-3-(3,4-dihydroxy-5-nitrophenyl)acrylo-nitrile], the pIC50 is less than 6.00.

For the compound `N#C/C(=C\c1cc(O)c(O)c([N+](=O)[O-])c1)C(=O)Nc1ccccc1` [Compound 318], the pIC50 is roughly 6.00.

With `N#C/C(=C\c1cc(O)c(O)c([N+](=O)[O-])c1)c1c[n+]([O-])ccn1` [Compound 520], the pIC50 is greater than 6.00.

`N#C/C(=C\c1cc(O)c(O)c([N+](=O)[O-])c1)C(=O)Nc1cccc(Cl)c1` [Compound 365]: the pIC50 is roughly 6.00.

In the case of `N#C/C(=C\c1cc(O)c(O)c([N+](=O)[O-])c1)C(=O)NCCO` [Compound 688, (E)-2-cyano-3-(3,4-dihydroxy-5-nitrophenyl)-N-(2-hydroxyethyl)acrylamide], the pIC50 is less than 6.00.

For the compound `N#C/C(=C\c1cc(O)c(O)c([N+](=O)[O-])c1)c1ccncc1` [Compound 389], the pIC50 is roughly 6.00.

With `N#C/C(=C(/O)c1cc(O)c(O)c([N+](=O)[O-])c1)c1nc2ccccc2s1` [Compound 359], the negative logarithm of the IC50 (pIC50) is less than 6.00.

With `N#C/C(C(=O)N1CCCOC1)=C(/O)c1cc(O)c(O)c([N+](=O)[O-])c1` [Compound 715], the pIC50 was greater than 6.00.

Turning to `N#C/C(=C(/N)c1cc(O)c(O)c([N+](=O)[O-])c1)c1cnc(C(=O)O)cn1` [Compound 697N], the pIC50 is greater than 6.00.

Turning to `N#C/C(C(=O)c1cscn1)=C(/O)c1cc(O)c(O)c([N+](=O)[O-])c1` [Compound 711, (Z)-3-(3,4-dihydroxy-5-nitrophenyl)-3-hydroxy-2-(thiazole-4-carbonyl)acrylonitrile], the pIC50 is roughly 6.00.

Regarding `CCNC(=O)/C(C#N)=C(\N)c1cc(O)c(O)c([N+](=O)[O-])c1` [Compound 691N, (Z)-3-amino-2-cyano-3-(3,4-dihydroxy-5-nitrophenyl)-N-ethylacrylamide], the pIC50 was roughly 6.00.

Consider `Cc1ccc(/C(C#N)=C/c2cc(O)c(O)c([N+](=O)[O-])c2)nc1` [Compound 502], for which the pIC50 is greater than 6.00.

On to `N#C/C(C(=O)Nc1cnccn1)=C(/O)c1cc(O)c(O)c([N+](=O)[O-])c1` [Compound 722], for which the pIC50 is greater than 6.00.

With `COc1cc(/C(O)=C(\C#N)c2cnccn2)cc([N+](=O)[O-])c1O` [Compound 524], the pIC50 is roughly 6.00.

As to `N#C/C(=C\c1cc(O)c(O)c([N+](=O)[O-])c1)C(=O)c1cc(O)no1` [Compound 675, (E)-3-(3,4-dihydroxy-5-nitrophenyl)-2-(3-hydroxyisoxazole-5-carbonyl)acrylonitrile], the pIC50 was less than 6.00.

For the origin of these results see patent US10988440B2, “FTO inhibitors” (National Institute of Biological Sciences, Beijing, priority 2015, dated 2021).
